Literature values in publication PMC12007609 (International Journal of Nanomedicine, 2025).

Tested on: GLUT2
Settings: GLUT2 transport

Km [mM]	Compound
~17	OC[C@H]1OC(O)[C@H](O)[C@@H](O)[C@@H]1O (stereo partly drawn) [glucose]
~76	O=C(CO)[C@@H](O)[C@H](O)[C@H](O)CO [fructose]
~92	O=C[C@H](O)[C@@H](O)[C@@H](O)[C@H](O)CO [galactose]
